US7973166B2, “N-(2-aminophenyl)-4-[N-(pyridine-3-yl)-methoxycarbonyl-aminomethyl]-benzamide (MS-275) polymorph B” (Bayer Schering Pharma AG, priority 2008, dated 2011)

Legend:
[1] = Thermodynamic stability of the solid state forms; type: physicochemical; conditions: at least in the relevant temperature range below 600 / below 60° C.
[2] = system: DU-145 Human Prostate Carcinoma; test: DU-145 human prostate carcinoma model in nude mice; type: in vivo; conditions: orally 10, 20 or 30 mg/kg in 30% HPβCD, tumor growth determined 27 to 56 days after tumor transplantation, versus vehicle control
Experimental: The active compound was applied in 30% HPβCD. As control, a vehicle of DMSO/ethanol 1.1 in 0.085% Myrj/NaCl/30% HPβCD was used. The tumor growth was determined after 27 to 56 days after tumor transplantation.

| Structure (SMILES) | thermodynamic stability of the polymorph [1] | tumor growth [2] |
| --- | --- | --- |
| Nc1ccccc1NC(=O)c1ccc(CNC(=O)OCc2cccnc2)cc1 [polymorph A, N-(2-aminophenyl)-4-[N-(pyridine-3-yl)methoxycarbonylamino-methyl]benzamide, reference compound] | not the thermodynamically stable polymorph |  |
| Nc1ccccc1NC(=O)c1ccc(CNC(=O)OCc2cccnc2)cc1 [polymorph B, N-(2-aminophenyl)-4-[N-(pyridine-3-yl)methoxy-carbonylamino-methyl]benzamide] | thermodynamically stable polymorph | clear inhibition |
